Assays:
[1] = stability of the solid form under hygroscopic conditions (higher relative humidity); type: physicochemical; conditions: higher relative humidity conditions of more than 60% RH
Excerpt: (§1) The present application provides a stable amorphous form of Venetoclax devoid of the problems indicated in the prior art and suitable for powder handling and downstream processes.

[2] = stability of the solid form under mechanical stress (grinding and milling); type: physicochemical
Excerpt: as §1

[3] = stability of the crystalline form over time; type: physicochemical
Protocol: In an embodiment, drying crystalline Form RT2 of Venetoclax may be carried out at temperatures and times sufficient to achieve desired quality of product. Drying may be carried out at about 30° C. or above at which crystalline form RT2 is stable and for any time period required for obtaining a desired quality, such as from about 5 minutes to 10 hours or longer. Crystalline form RT2 is stable for 3 months period or longer.

[4] = system: tumor cells that overexpress BCL-2; conditions: nonclinical studies; cited from earlier work

Compound: CC1(C)CCC(CN2CCN(c3ccc(C(=O)NS(=O)(=O)c4ccc(NCC5CCOCC5)c([N+](=O)[O-])c4)c(Oc4cnc5[nH]ccc5c4)c3)CC2)=C(c2ccc(Cl)cc2)C1 [Amorphous form of Venetoclax]
- stability under hygroscopic conditions [1]: stable
- stability under mechanical stress [2]: highly stable

Compound: CC1(C)CCC(CN2CCN(c3ccc(C(=O)NS(=O)(=O)c4ccc(NCC5CCOCC5)c([N+](=O)[O-])c4)c(Oc4cnc5[nH]ccc5c4)c3)CC2)=C(c2ccc(Cl)cc2)C1 [Crystalline form RT2]
- period for which the crystalline form is stable [3]: ≥ 3 months

Compound: CC1(C)CCC(CN2CCN(c3ccc(C(=O)NS(=O)(=O)c4ccc(NCC5CCOCC5)c([N+](=O)[O-])c4)c(Oc4cnc5[nH]ccc5c4)c3)CC2)=C(c2ccc(Cl)cc2)C1 [Venetoclax]
- cytotoxic activity [4]: demonstrated cytotoxic activity

Source: patent publication US20190185471A1, “SOLID FORMS OF VENETOCLAX AND PROCESSES FOR THE PREPARATION OF VENETOCLAX” (DR. REDDY'S LABORATORIES LIMITED, priority 2016, published 2019)
